Measurements taken from US20100215579A1, “PHEN-NAPHTHALENE AND PHEN-QUINOLINE DERIVATIVES AND THEIR USE FOR BINDING AND IMAGING AMYLOID PLAQUES” (The Trustees of the University of Pennsylvania, priority 2007, published 2010).

Columns and labels:
[1] = Biodistribution in ICR mice after an iv injection; type: in vivo
Description: Biodistribution in ICR Mice After an iv Injection of [^18F][4-(6-{2-[2-(2-Fluoro-ethoxy)-ethoxy]-ethoxy}-naphthalen-2-yl)-phenyl]-methyl-amine in 1% EtOH/0.1% BSA in Water
(% dose/organ, avg of 3 mice±SD)
(% dose/g, avg of 3 mice±SD)
Biodistribution in ICR Mice After an iv Injection of [^18F]19a in 3% EtOH/0.1% BSA in Water
Biodistribution in ICR Mice After an iv Injection of [^18F]34a in 5% EtOH/0.1% BSA in Water
Biodistribution in ICR Mice After an iv Injection of [^18F]32a in 1% EtOH/0.1% BSA in Water

[2] = Log P (octanol/Na2HPO4 buffer pH 7.4); type: physicochemical; settings: octanol/0.1 M Na2HPO4 buffer (pH 7.4)
[3] = Blood, 2 min after iv injection
[4] = Blood, 30 min after iv injection
[5] = Bone, 30 min after iv injection
[6] = Brain, 2 min after iv injection
[7] = Brain, 30 min after iv injection
[8] = Heart, 2 min after iv injection
[9] = Heart, 30 min after iv injection
[10] = Kidney, 2 min after iv injection
[11] = Kidney, 30 min after iv injection
[12] = Kidney, 1 hr after iv injection
[13] = Kidney, 2 hr after iv injection
[14] = Liver, 2 min after iv injection
[15] = Liver, 30 min after iv injection
[16] = Lung, 30 min after iv injection
[17] = Muscle, 2 min after iv injection
[18] = Muscle, 30 min after iv injection
[19] = Muscle, 1 hr after iv injection
[20] = Muscle, 2 hr after iv injection
[21] = Skin, 30 min after iv injection
[22] = Spleen, 2 min after iv injection
[23] = Spleen, 30 min after iv injection
[24] = Spleen, 1 hr after iv injection
[25] = Spleen, 2 hr after iv injection

% dose/g [1, 3]: 1.80 ± 0.28 % dose/g
% dose/organ [1, 3]: 3.32 ± 0.46 % dose/organ
% dose/g [1, 4]: 0.99 ± 0.12 % dose/g
% dose/organ [1, 4]: 1.80 ± 0.14 % dose/organ
% dose/g ([1]; Blood, 1 hr after iv injection): 1.37 ± 0.14 % dose/g
% dose/organ ([1]; Blood, 1 hr after iv injection): 2.40 ± 0.19 % dose/organ
% dose/g ([1]; Blood, 2 hr after iv injection): 1.13 ± 0.15 % dose/g
% dose/organ ([1]; Blood, 2 hr after iv injection): 2.00 ± 0.25 % dose/organ
% dose/g ([1]; Bone, 2 min after iv injection): 1.25 ± 0.06 % dose/g
% dose/organ ([1]; Bone, 2 min after iv injection): 4.63 ± 0.32 % dose/organ
% dose/g [1, 5]: 0.81 ± 0.11 % dose/g
% dose/organ [1, 5]: 2.92 ± 0.27 % dose/organ
% dose/g ([1]; Bone, 1 hr after iv injection): 1.11 ± 0.14 % dose/g
% dose/organ ([1]; Bone, 1 hr after iv injection): 3.91 ± 0.37 % dose/organ
% dose/g ([1]; Bone, 2 hr after iv injection): 1.47 ± 0.27 % dose/g
% dose/organ ([1]; Bone, 2 hr after iv injection): 5.19 ± 0.80 % dose/organ
% dose/g [1, 6]: 7.76 ± 1.25 % dose/g
% dose/organ [1, 6]: 3.56 ± 0.47 % dose/organ
% dose/g [1, 7]: 2.33 ± 0.68 % dose/g
% dose/organ [1, 7]: 1.07 ± 0.24 % dose/organ
% dose/g ([1]; Brain, 1 hr after iv injection): 1.92 ± 0.31 % dose/g
% dose/organ ([1]; Brain, 1 hr after iv injection): 0.86 ± 0.14 % dose/organ
% dose/g ([1]; Brain, 2 hr after iv injection): 1.45 ± 0.11 % dose/g
% dose/organ ([1]; Brain, 2 hr after iv injection): 0.66 ± 0.03 % dose/organ
% dose/g [1, 8]: 10.1 ± 1.14 % dose/g
% dose/organ [1, 8]: 1.36 ± 0.20 % dose/organ
% dose/g [1, 9]: 1.99 ± 0.43 % dose/g
% dose/organ [1, 9]: 0.26 ± 0.06 % dose/organ
% dose/g ([1]; Heart, 1 hr after iv injection): 2.07 ± 0.23 % dose/g
% dose/organ ([1]; Heart, 1 hr after iv injection): 0.25 ± 0.03 % dose/organ
% dose/g ([1]; Heart, 2 hr after iv injection): 1.28 ± 0.09 % dose/g
% dose/organ ([1]; Heart, 2 hr after iv injection): 0.15 ± 0.01 % dose/organ
% dose/g [1, 10]: 13.0 ± 3.04 % dose/g
% dose/organ [1, 10]: 5.25 ± 0.89 % dose/organ
% dose/g [1, 11]: 3.61 ± 0.65 % dose/g
% dose/organ [1, 11]: 1.55 ± 0.33 % dose/organ
% dose/g [1, 12]: 3.38 ± 0.38 % dose/g
% dose/organ [1, 12]: 1.24 ± 0.19 % dose/organ
% dose/g [1, 13]: 1.78 ± 0.06 % dose/g
% dose/organ [1, 13]: 0.73 ± 0.02 % dose/organ
% dose/g [1, 14]: 16.3 ± 4.96 % dose/g
% dose/organ [1, 14]: 19.4 ± 3.67 % dose/organ
% dose/g [1, 15]: 8.02 ± 0.65 % dose/g
% dose/organ [1, 15]: 11.2 ± 1.65 % dose/organ
% dose/g ([1]; Liver, 1 hr after iv injection): 8.10 ± 1.59 % dose/g
% dose/organ ([1]; Liver, 1 hr after iv injection): 9.75 ± 1.79 % dose/organ
% dose/g ([1]; Liver, 2 hr after iv injection): 5.22 ± 0.49 % dose/g
% dose/organ ([1]; Liver, 2 hr after iv injection): 6.34 ± 0.87 % dose/organ
% dose/g ([1]; Lung, 2 min after iv injection): 7.63 ± 0.46 % dose/g
% dose/organ ([1]; Lung, 2 min after iv injection): 1.54 ± 0.16 % dose/organ
% dose/g [1, 16]: 2.31 ± 0.42 % dose/g
% dose/organ [1, 16]: 0.42 ± 0.07 % dose/organ
% dose/g ([1]; Lung, 1 hr after iv injection): 2.21 ± 0.19 % dose/g
% dose/organ ([1]; Lung, 1 hr after iv injection): 0.40 ± 0.01 % dose/organ
% dose/g ([1]; Lung, 2 hr after iv injection): 1.43 ± 0.03 % dose/g
% dose/organ ([1]; Lung, 2 hr after iv injection): 0.27 ± 0.00 % dose/organ
% dose/g [1, 17]: 0.83 ± 0.19 % dose/g
% dose/organ [1, 17]: 8.87 ± 2.47 % dose/organ
% dose/g [1, 18]: 1.20 ± 0.28 % dose/g
% dose/organ [1, 18]: 12.3 ± 2.18 % dose/organ
% dose/g [1, 19]: 1.09 ± 0.09 % dose/g
% dose/organ [1, 19]: 11.0 ± 0.64 % dose/organ
% dose/g [1, 20]: 0.81 ± 0.14 % dose/g
% dose/organ [1, 20]: 8.16 ± 1.14 % dose/organ
% dose/g ([1]; Skin, 2 min after iv injection): 0.42 ± 0.06 % dose/g
% dose/organ ([1]; Skin, 2 min after iv injection): 1.68 ± 0.22 % dose/organ
% dose/g [1, 21]: 0.98 ± 0.33 % dose/g
% dose/organ [1, 21]: 3.86 ± 1.41 % dose/organ
% dose/g ([1]; Skin, 1 hr after iv injection): 0.94 ± 0.06 % dose/g
% dose/organ ([1]; Skin, 1 hr after iv injection): 3.53 ± 0.16 % dose/organ
% dose/g ([1]; Skin, 2 hr after iv injection): 0.82 ± 0.15 % dose/g
% dose/organ ([1]; Skin, 2 hr after iv injection): 3.11 ± 0.48 % dose/organ
% dose/g [1, 22]: 4.95 ± 0.78 % dose/g
% dose/organ [1, 22]: 0.51 ± 0.09 % dose/organ
% dose/g [1, 23]: 1.56 ± 0.28 % dose/g
% dose/organ [1, 23]: 0.15 ± 0.03 % dose/organ
% dose/g [1, 24]: 1.64 ± 0.13 % dose/g
% dose/organ [1, 24]: 0.15 ± 0.04 % dose/organ
% dose/g [1, 25]: 1.16 ± 0.07 % dose/g
% dose/organ [1, 25]: 0.09 ± 0.01 % dose/organ
Log P [2]: 2.77
SMILES: CN(C)c1ccc(-c2ccc3nc(OCCOCCOCC[18F])ccc3c2)cc1 [[^18F]32a]
